Source: patent US10828301B2, “2,4-pyrimidinediamine compounds and their uses” (Rigel Pharmaceuticals, Inc, priority 2002, dated 2020)
Where two headings read alike, the source gives them in different places. Values belong to the molecule of their own block, whether it stands above or below them.

Legend:
[1] = system: cultured human mast cells (CHMC); assay: CHMC low cell density IgE activation: tryptase and LTC4 assays; type: cell-based; conditions: Homo sapiens, Mast cell, Low Density CHMC, anti-IgE activation
Method in brief: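 Cultured human mast cells at low density (1000-1500 per well) rested 1 h at 37° C, then stimulated with anti-IgE for 30 min at 37° C. Supernatant tryptase measured with fluorogenic substrate (30 min, room temperature); LTC4 quantified by ELISA on diluted supernatant.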

[2] = system: bone marrow derived mast cells (BMMC); assay: BMMC high cell density IgE activation: degranulation (hexosiminidase, histamine), leukotriene (LTC4) and cytokine (TNFalpha, IL-6) assays; type: cell-based; conditions: Mus musculus, anti-IgE activation
[3] = system: cultured human mast cells (CHMC); assay: CHMC low cell density ionomycin activation: tryptase assay; type: cell-based; conditions: Homo sapiens, Mast cell, Low Density CHMC, ionomycin activation, tryptase readout; read-out: CHMC Ionomycin Tryptase
[4] = system: Jurkat cells; assay: Jurkat toxicity: Cell Titer Glo assay; type: cell-based; conditions: Homo sapiens, 18 hours
Description: Seed 50 μl cells (1×10^6/ml) into each well containing 50 μl compound. […] Shake plates for 1 minute to mix cells and compound. Incubate plates at 37° C. […] Next day, harvest 50 μl cells from each well, add to 50 μl Cell Titer Glo reagent ([…]). Shake plates for 1 minute. Read on luminometer.

[5] = Mouse model of allergic asthma (ovalbumin); type: in vivo
Text: Mice are sensitized to ovalbumin (chicken protein) in the presence of an adjuvant (Alum) by the intraperitoneal route on day 0 and day 7. One week later, mice are challenged intranasally with ovalbumin on Days 14, 15 and 16 (more stringent model) or on Day 14 (less stringent model). This sensitization and challenge regimen leads to airway hyperresponsiveness and inflammation in the lungs, which are two dominant characteristics of human allergic asthma. In the mouse model, the in vivo airway responses are measured using a whole body plethysmograph which determines the PENH (enhanced Pause, Buxco Electronics). The PENH is a dimensionless value comprised of the peak inspiratory flow (PIF), peak expiratory flow (PEF), time of inspiration, time of expiration and relaxation time, and is considered a validated parameter of airway responsiveness. Responses to allergen challenge (OVA) are compared with animals challenged with saline only. Twenty-four hours after challenge, mice are exposed to increasing doses of methacholine (muscarinic receptor agonist) which results in smooth muscle contraction. […] In addition, a cellular infiltrate in the airway is observed in ovalbumin challenged mice when compared with the saline challenged mice. This cellular infiltrate is mainly characterized by eosinophils, but a smaller influx of neutrophils and mononuclear cells is also present.
The use of this model for the evaluation of small molecule inhibitors of mast cell degranulation has been validated is several ways. First, using mast cell deficient mice (W/W^v) it has been shown that the ovalbumin-induced responses are dependent upon the presence of mast cells.

[6] = system: cultured human mast cells (CHMC); assay: CHMC high cell density IgE activation: degranulation (hexos, tryptase, histamine), leukotriene (LTC4) and cytokine (TNFalpha, IL-13) assays; type: cell-based; conditions: anti-IgE activation
Description: After sensitizing, cells are counted, pelleted (1000 rpm, 5-10 minutes), and resuspended at 1-2×10^6 cells/ml in MT buffer. Add 100 ul of cell suspension to each well and 100 ul of compound dilutions. The final vehicle concentration is 0.5% DMSO. Incubate at 37° C. (5% CO2) for 1 hour. After 1 hour of compound treatment, stimulate cells with 6× anti-IgE. Mix wells with the cells and allow plates to incubate at 37° C. (5% CO2) for one hour. After 1 hour incubation, pellet cells (10 minutes, 1000 RPM) and collect 200 ul per well of the supernatant, being careful not to disturb pellet. Place the supernatant plate on ice. During the 7-hour step (see next) perform tryptase assay on supernatant that had been diluted 1:500. Resuspend cell pellet in 240 ul of CM media containing 0.5% DMSO and corresponding concentration of compound. Incubate CHMC cells for 7 hours at 37° C. (5% CO2). After incubation, pellet cells (1000 RPM, 10 minutes) and collect 225 ul per well and place in −80° C. until ready to perform ELISAS. ELISAS are performed on appropriately diluted samples (determined empirically for each donor cell population so that the sample measurement falls within the standard curve) following the supplier's instructions.

[7] = system: basophils in whole human peripheral blood; assay: Basophil ionomycin activation: histamine release assay; type: cell-based
Description: Assays for ionomycin-induced basophil cell degranulation were carried out as described for the Basophil IgE or Dustmite Activation Assay (Section 6.4.6, supra), with the exception that following incubation with compound, cells were stimulated with 20 μl of 2 μM ionomycin.

[8] = system: IgE-induced degranulation of tissue mast cells; assay: Mouse model of passive cutaneous anaphylaxis (PCA); type: in vivo; conditions: for inhibition of the PCA response: oral route in a PEG-based formulation, data not shown
Description: This model provides a direct measure of IgE-induced degranulation of tissue mast cells. In this model, IgE primed animals are exposed to an allergen challenge, and the change in permeability of dermal vasculature that results from histamine release from mast cells is measured by change in the amount of dye leakage into surrounding tissue. Inhibition of mediator release by compounds that modulate mast cell degranulation is easily measured by extracting the dye from the tissue.
In the PCA assay mice are passively sensitized by intradermal injection with anti-dinitrophenol (DNP) IgE antibodies (Day −1). At predetermined times animals are treated with the test agent (Day 0). The modulatory effect of the agent on cutaneous mast cell degranulation is measured following intravenous injection of DNP conjugated to human serum albumin (HSA-DNP), together with Evans blue dye. The resulting cross-linking of the IgE receptor and subsequent mast cell degranulation-induced increase in vascular permeability is determined by measuring the amount of dye extravasation into the tissue. Dye is extracted from the tissue by formamide, and the absorbance of this extract is read at 620 nm.

[9] = Oral bioavailability / pharmacokinetics in rats; type: in vivo; conditions: rats
Description: Over 50 2,4-pyrimidinediamine compounds of the invention were tested for oral bioavailability. For the study, compounds were dissolved in various vehicles (e.g. PEG 400 solution and CMC suspension) for intravenous and oral dosing in the rats. Following administration of the drug, plasma samples were obtained and extracted. The plasma concentrations of the compounds were determined by high performance liquid chromatography/tandem mass spectrometry (LC/MS/MS) methods. Pharmacokinetic analyses were performed based on the plasma concentration data. The pharmacokinetic parameters of interest include Clearance (CL), Volume of distribution at steady-state (Vss), terminal half-life (t1/2), and oral bioavailability (% F).

[10] = tryptase readout, read-out: CHMC anti-IgE Tryptase
[11] = IL-6 release, read-out: BMMC anti-IgE IL-6 IC50
[12] = LTC4 release, read-out: BMMC anti-IgE LTC4 IC50
[13] = TNF-alpha release, read-out: BMMC anti-IgE TNF-alpha IC50
[14] = hexosaminidase release, read-out: BMMC anti-IgE hexos IC50
[15] = histamine release, read-out: BMMC anti-IgE histamine IC50
[16] = LTC4, read-out: CHMC high density LTC4
[17] = TNF-alpha, read-out: CHMC high density TNF-alpha
[18] = hexosaminidase release, read-out: CHMC high density hexos
[19] = histamine release, read-out: CHMC high density histamine
[20] = tryptase release, read-out: CHMC high density tryptase

IC50 [1, 10]: 181 nM | IC50 [2, 11]: < 220 nM | IC50 [2, 12]: 1020 nM | IC50 [2, 13]: 253 nM | IC50 [2, 14]: < 220 nM | IC50 [2, 15]: < 220 nM | IC50 [3]: > 10000 nM
SMILES: Oc1cccc(Nc2nc(Nc3ccc4c(c3)N=CCO4)ncc2F)c1 [Compound R909241, N2-(1,4-Benzoxazin-6-yl)-5-fluoro-N4-(3-hydroxyphenyl)-2,4-pyrimidinediamine]
IC50 [4]: 3740 nM

IC50 ([1]; LTC4 readout, read-out: CHMC anti-IgE LTC4): 78 nM | IC50 [1, 10]: 250 nM | IC50 [6, 16]: 474 nM | IC50 [6, 17]: > 2000 nM | IC50 [6, 18]: 889 nM | IC50 [6, 19]: 1320 nM | IC50 [6, 20]: 1090 nM | IC50 [3]: 9180 nM
SMILES: CNC(=O)c1cc2cc(Nc3ncc(F)c(Nc4cccc(O)c4)n3)ccc2o1 [Compound R926493, 5-Fluoro-N4-(3-hydroxyphenyl)-N2-[2-(N-methylamino)carbonylbenzofuran-5-yl]-2,4-pyrimidinediamine]
IC50 [4]: > 4330 nM

IC50 [1, 10]: 309 nM | IC50 ([6]; IL-13, read-out: CHMC high density IL-13): 1770 nM | IC50 [6, 16]: < 1100 nM | IC50 [6, 17]: < 1100 nM | IC50 [6, 18]: < 1100 nM | IC50 [6, 19]: < 1100 nM | IC50 [6, 20]: < 1100 nM | IC50 [3]: > 10000 nM
SMILES: NC12OCCON1C(Nc1ccc3oc(CO)cc3c1)=NC=C2F (centres unmarked) [Compound R926696, N4-(3,4-Ethylenedioxy)-5-fluoro-N2-[2-(hydroxymethyl)benzofuran-5-yl]-2,4-pyrimidinediamine]
IC50 [4]: > 5000 nM

IC50 [1, 10]: 127 nM | IC50 [2, 11]: 41 nM | IC50 [2, 12]: 547 nM | IC50 [2, 13]: 131 nM | IC50 [2, 14]: 104 nM | IC50 [2, 15]: 85 nM | IC50 [3]: > 10000 nM
SMILES: OCCOc1cccc(Nc2ncc(F)c(Nc3ccc4c(c3)OCCO4)n2)c1 [Compound R935154, N4-(3,4-Ethylenedioxyphenyl)-5-fluoro-N2-[3-(2-hydroxyethoxy)phenyl]-2,4-pyrimidinediamine]
IC50 [4]: > 4330 nM

IC50 [1, 10]: 149 nM | IC50 [2, 11]: < 220 nM | IC50 [2, 12]: 433 nM | IC50 [2, 13]: 220 nM | IC50 [2, 14]: < 220 nM | IC50 [2, 15]: < 220 nM | IC50 [3]: > 10000 nM
SMILES: CC(C)Oc1ccc(Nc2nc(Nc3cccc(OCCO)c3)ncc2F)cc1 [Compound R935156, 5-Fluoro-N2-[3-(2-hydroxyethoxy)phenyl]-N4-(4-isopropoxyphenyl)-2,4-pyrimidinediamine]
IC50 [4]: 4050 nM

IC50 [1, 10]: 164 nM | IC50 [2, 11]: < 220 nM | IC50 [2, 12]: 288 nM | IC50 [2, 13]: < 220 nM | IC50 [2, 14]: < 220 nM | IC50 [2, 15]: < 220 nM | IC50 [3]: > 10000 nM
SMILES: Nc1cccc(Nc2ncc(F)c(Nc3ccc4c(c3)OCCO4)n2)c1 [Compound R950207, N2-(3-Aminophenyl)-N4-(3,4-ethylenedioxyphenyl)-5-fluoro-2,4-pyrimidinediamine]
IC50 [4]: > 4330 nM

The remaining lines, values behind:

SMILES: CNC(=O)COc1cccc(Nc2ncc(F)c(Nc3ccc4c(n3)NC(=O)CO4)n2)c1 [Compound R921304, 5-Fluoro-N2-(3-methylaminocarbonylmethyleneoxyphenyl)-N4-[2H-pyrido[3,2-b]-1,4-oxazin-3(4H)-one-6-yl]-2,4-pyrimidinediamine]
ovalbumin-induced airway hyperresponsiveness to methacholine ([5]; intranasal, 10 consecutive days (Day 7 through Day 16), 20 mg/kg): able to inhibit the ovalbumin-induced airway hyperresponsiveness to methacholine | airway responses in a mouse model of allergic asthma ([5]; summary): efficacious in inhibiting the airway responses

SMILES: CNC(=O)COc1cccc(Nc2ncc(F)c(Nc3ccc4c(c3)OCCO4)n2)c1 [Compound R926495, N4-(3,4-Ethylenedioxyphenyl)-5-fluoro-N2-[3-(N-methylamino)carbonylmethyleneoxyphenyl]-2,4-pyrimidinediamine]
IC50 [7]: > 10000 nM | inhibition of the PCA response [8]: able to inhibit the PCA response

SMILES: CNC(=O)COc1cccc(Nc2ncc(F)c(Nc3cccc(O)c3)n2)c1 [Compound R926508, 5-Fluoro-N4-(3-hydroxyphenyl)-N2-[3-(N-methylamino)carbonylmethyleneoxyphenyl]-2,4-pyrimidinediamine]
IC50 [7]: > 10000 nM | inhibition of the PCA response [8]: able to inhibit the PCA response

SMILES: CNC(=O)COc1cccc(Nc2ncc(F)c(Nc3ccc4cc[nH]c4c3)n2)c1 [Compound R926745, 5-Fluoro-N4-[(1H)-indol-6-yl]-N2-[3-(N-methylamino)carbonylmethyleneoxyphenyl]-2,4-pyrimidinediamine]
inhibition of the PCA response [8]: able to inhibit the PCA response

SMILES: Cn1ncc2cc(Nc3ncc(F)c(Nc4ccc5c(c4)OCCO5)n3)ccc21 [Compound R935193, N4-(3,4-Ethylenedioxyphenyl)-5-fluoro-N2-(1-methyl-indazoline-5-yl)-2,4-pyrimidinediamine]
oral bioavailabilities and half-lives (in words) [9]: good oral bioavailabilities and half-lives in rats

SMILES: O=C(O)c1cc(=O)c2c(OCC(O)COc3cccc4oc(C(=O)O)cc(=O)c34)cccc2o1 [Cromolyn, reference compound]
ovalbumin-induced airway hyperresponsiveness and inflammation ([5]; model validation, data not shown): able to block the ovalbumin-induced airway hyperresponsiveness and inflammation

SMILES: CCCC1O[C@@H]2C[C@H]3[C@@H]4CCC5=CC(=O)C=C[C@]5(C)[C@H]4[C@@H](O)C[C@]3(C)[C@]2(C(=O)CO)O1 (some centres unmarked) [budesonide, reference compound]
methacoline-induced bronchocontriction ([5]; model validation): inhibitory effect

SMILES: C[C@@H]1C[C@H]2[C@@H]3CCC4=CC(=O)C=C[C@]4(C)[C@@]3(F)[C@@H](O)C[C@]2(C)[C@@]1(O)C(=O)CO [dexamethasone, reference compound]
methacoline-induced bronchocontriction ([5]; model validation): inhibitory effect

SMILES: CN(C)CCOC(c1ccccc1)c1ccccc1 [diphenhydramine, reference compound]
inhibition of the PCA response / FcεR-mediated vascular leakage (in words) ([8]; mouse, in vivo): inhibit the PCA response
